Reference: patent publication US20260240820A1, “METHOD FOR CONTROLLING MEMBRANE POTENTIAL-DEPENDENT ION CHANNEL THROUGH TYPE I TASTE RECEPTORS (T1RS)” (ION CHAT RESEARCH CORPORATE, priority 2022, published 2026)
“Also recorded” adds a separate entry of the source. Like-named read-outs stand apart in the source and are kept apart here.

Experiments:
HEK Nav1.5 cells = assay: GFP-Tubulin / GFP-Actin cytoskeleton observation in HEK Nav1.5 cells; assay type: cell-based, human; details: MSG 5 mM
[1] = tested on: Nav1.5 in T1R1-silenced HEK cells; assay: VGSC current in HEK Nav1.5 cells with silenced T1R1; assay type: cell-based, human; details: 5 mM for MSG2.5
[2] = tested on: voltage-dependent potassium channel current of SH-SY5Y cells; assay: Voltage clamp recording of outward potassium current in SH-SY5Y cells; assay type: cell-based, human; details: 5 mM
Source text: The inward current represents the transient peak observed immediately after stimulation, while the outward current measures the average value during the last 50 ms of rectangular pulse stimulation.

Nav1.5 = assay: Patch-clamp (voltage clamp) recording of VGSC current in HEK cells stably expressing Nav1.5
Kv1.2 = assay: Patch-clamp recording of Kv1.2 potassium current in HEK cells expressing Kv1.2; assay type: cell-based, human
Procedure: The effects of Aβ peptides or umami substances on sustained potassium currents (VGKC) in cardiac myocytes can be studied using HEK cells expressing VGKC (such as Kv1.2, Kv3.2, Kv3.3) as well as SH-SY5Y cells expressing endogenous T1R GPCRs. For instance, as shown in the implementation example in (FIG. 36B), Aβ peptides were applied to VGKC-expressing human cultured cells, and VGKC currents were recorded using ramp-like or rectangular voltage waveforms via the patch-clamp technique. This allowed measurement of the changes (inhibition) in VGKC currents caused by Aβ peptides. Similar inhibition studies on VGKC can be conducted using umami substance L-glutamate sodium (MSG) (FIG. 36A).
As shown in (FIG. 37), Aβ1-42 peptide, unlike Aβ25-35 targeting T1R3, interacts with T1R1 and inhibits VGSC currents (FIGS. 37D, E).

[3] = tested on: VGSC of SH-SY5Y cells (Nav1.7, Nav1.2, Nav1.3); assay: Patch-clamp recording of VGSC current in differentiated SH-SY5Y cells; assay type: cell-based, human; details: 5 mM
VGSC = assay: Patch-clamp recording of VGSC current, cell type not specified or several cell types (summary statements); assay type: cell-based, human

N[C@@H](CCC(=O)O)C(=O)[O-].[Na+] [MSG, monosodium glutamate]
Microtubule fibrous structure (GFP-Tubulin) (HEK Nav1.5 cells): disappearance of microtubule-like structures; also recorded: microtubule structure disappeared | Effect on VGSC currents in T1R1-silenced cells [1]: MSG had no effect on VGSC enhancement in T1R1 silenced cells. | Effect on outward potassium current [2]: reduces the voltage-dependent potassium channel current; also recorded: decrease in outward currents | Inactivation process of transient VGSC current (Nav1.5; 5 mM): significantly delayed; also recorded: This delay in inactivation speed more pronounced in Nav1.5 cells | VGSC current suppressed by TBB (Nav1.5; 10 mM, after CK2 inhibitor TBB): partially recovered from TBB suppression | S-S curve shifted by TBB (Nav1.5; after TBB): partially reversed the leftward shift caused by TBB | Effect on voltage gated K+ channel (Kv1.2) current (Kv1.2): Inhibition of Voltage gated | Inactivation of VGSC current [3]: delayed; also recorded: The inactivation speed of VGSC slows in 2 out of 3 SH-SY5Y cells | Effect on VGSC inactivation (VGSC): delays the inactivation of VGSC | Effects on VGSCs (VGSC): Transient enhancement of VGSC; also recorded: Left shift of the I-V curve | VGSC I-V curve (VGSC; 5 mM): 5 mM MSG shifts the VGSC I-V curve to a more hyperpolarized direction. | Delay of VGSC inactivation (VGSC; 10 mM): This delaying effect even more evident at 10 mM MSG. | Inactivation curve of VGSC shifted by dichlorprop (VGSC; VGSC inhibited by more than 80% by dichlorprop): partially recovered | Suppression / leftward S-S shift of VGSC caused by artificial sweeteners (VGSC; cells pre-treated with aspartame or saccharin): partially reversed | Effects on VGSCs (VGSC; listed as L-Glu (MSG)): Delay in VGSC inactivation
